Test results from US11180488B2, “Isoxazole o-linked carbamoyl cyclohexyl acids as LPA antagonists” (BRISTOL-MYERS SQUIBB COMPANY, priority 2017, dated 2021).

These compounds were tested against T1, human LPA1 (Homo sapiens, UniProt Q92633) (assay: LPA1 functional antagonist assay (LPA-induced calcium flux)). Details: CHO cells overexpressing human LPA1; calcium flux induced by 10 nM LPA; read-out: LPA1 IC50.
T1 construct: expressed in transfected cells; host or cells: Chinese hamster ovary (CHO) cells
Format: cell-based
Description: The effectiveness of compounds of the present invention as LPA1 inhibitors can be determined in an LPA1 functional antagonist assay as follows:
Chinese hamster ovary cells overexpressing human LPA1 were plated overnight (15,000 cells/well) in poly-D-lysine coated 384-well microplates (Greiner bio-one, Cat #781946) in DMEM/F12 medium (Gibco, Cat #11039). Following overnight culture, cells were loaded with calcium indicator dye (AAT Bioquest Inc, Cat #34601) for 30 minutes at 37° C. The cells were then equilibrated to room temperature for 30 minutes before the assay. Test compounds solubilized in DMSO were transferred to 384 well non-binding surface plates (Corning, Cat #3575) using the Labcyte Echo acoustic dispense and diluted with assay buffer [1×HBSS with calcium/magnesium (Gibco Cat #14025-092), 20 mM HEPES (Gibco Cat #15630-080) and 0.1% fatty acid free BSA (Sigma Cat #A9205)] to a final concentration of 0.5% DMSO. Diluted compounds were added to the cells by FDSS6000 (Hamamatsu) at final concentrations ranging from 0.08 nM to 5 μM. and were then incubated for 20 min at room temperature at which time LPA (Avanti Polar Lipids Cat #857130C) was added at final concentrations of 10 nM to stimulate the cells. […] IC50 values were determined by fitting data to a 4-parameter logistic equation (GraphPad Prism, San Diego Calif.).

T1 sequence (Q92633 whole entry): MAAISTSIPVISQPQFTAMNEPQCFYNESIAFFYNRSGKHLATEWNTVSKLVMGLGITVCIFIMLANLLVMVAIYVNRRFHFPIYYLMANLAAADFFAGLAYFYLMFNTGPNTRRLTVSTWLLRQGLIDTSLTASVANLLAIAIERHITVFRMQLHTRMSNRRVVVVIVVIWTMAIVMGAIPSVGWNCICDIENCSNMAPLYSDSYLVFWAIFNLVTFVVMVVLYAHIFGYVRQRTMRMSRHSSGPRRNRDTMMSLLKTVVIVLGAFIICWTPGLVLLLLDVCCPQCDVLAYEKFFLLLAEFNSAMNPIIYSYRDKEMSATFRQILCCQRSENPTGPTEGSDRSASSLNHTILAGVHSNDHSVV

| Compound | IC50 [nM] |
| --- | --- |
| Cc1nc(-c2onc(C)c2COC(=O)N(C)C(C)(C)C)ccc1O[C@H]1CCC[C@H](C(=O)O)C1 [Example 63] | 50 |
| Cc1nc(-c2onc(C)c2COC(=O)N(C)Cc2cccc(F)c2)ccc1O[C@H]1CCC[C@H](C(=O)O)C1 [Example 61] | 19 |
| Cc1noc(-c2cnc(O[C@H]3CCC[C@H](C(=O)O)C3)cn2)c1COC(=O)N(C)CCC(C)C [Example 56] | 150 |
| Cc1nc(-c2onc(C)c2COC(=O)N(C)[C@H](C)c2ccccc2)ccc1O[C@H]1CCC[C@H](C(=O)O)C1 [Example 62] | 17 |
| Cc1noc(-c2ccc(O[C@H]3CCC[C@H](C(=O)O)C3)cn2)c1COC(=O)N(C)CC1CCC1 [Example 58] | 8 |
| Cc1noc(-c2cnc(O[C@H]3CCC[C@H](C(=O)O)C3)cn2)c1COC(=O)N(C)C1CCCC1 [Example 55] | 88 |
| Cc1cc(-c2onc(C)c2COC(=O)N(C)C2CCCC2)ccc1O[C@H]1CCC[C@H](C(=O)O)C1 [Example 64] | 52 |

Same assay, conditions: CHO cells overexpressing human LPA1; calcium flux induced by 10 nM LPA; read-out: hLPA1 IC50

| Compound | IC50 [nM] |
| --- | --- |
| Cc1noc(-c2ccc(O[C@H]3CCC[C@H](C(=O)O)C3)cc2)c1COC(=O)N(C)C1CCOC1 (stereo partly drawn) [Example 31] | 370 |
| Cc1noc(-c2ccc(O[C@H]3CCC[C@H](C(=O)O)C3)cc2)c1COC(=O)N(C)CCC1CCC1 (racemic) [Example 29] | 424 |
| Cc1noc(-c2ccc(O[C@H]3CCC[C@H](C(=O)O)C3)cc2)c1COC(=O)N1C[C@H]2C[C@H]2C1 [Example 35] | 1230 |
| Cc1noc(-c2ccc(O[C@@H]3CCC[C@](C)(C(=O)O)C3)cc2)c1COC(=O)N(C)C1CCCC1 (racemic) [Example 7, (±)-Cis-3-(4-(4-(((cyclopentyl(methyl)carbamoyl)oxy)methyl)-3-methylisoxazol-5-yl)phenoxy)-1-methylcyclohexanecarboxylic Acid] | 2180 |
| Cc1noc(-c2ccc(O[C@H]3CCC[C@@H](CC(=O)O)C3)cc2)c1COC(=O)N(C)C1CCCC1 [Example 48] | 1490 |
| Cc1noc(-c2ccc(O[C@H]3CCC[C@H](C(N)=O)C3)cc2)c1COC(=O)N(C)C1CCCC1 (racemic) [Example 73, (±)-Trans-(5-(4-((3-carbamoylcyclohexyl)oxy)phenyl)-3-methylisoxazol-4-yl)methyl cyclopentyl(methyl)carbamate] | 1210 |
| COC(C)CN(C)C(=O)OCc1c(C)noc1-c1ccc(O[C@@H]2CCC[C@@H](C(=O)O)C2)cc1 (stereo partly drawn) [Example 71] | 1630 |
| Cc1noc(-c2ccc(OC3CCCC(c4nnn[nH]4)C3)cc2)c1COC(=O)N(C)C1CCCC1 (single isomer, unassigned) [Example 77, (5-(4-((3-(1H-tetrazol-5-yl)cyclohexyl)oxy)phenyl)-3-methylisoxazol-4-yl)methyl cyclopentyl(methyl)carbamate] | 379 |
| COCC(C)N(C)C(=O)OCc1c(C)noc1-c1ccc(O[C@@H]2CCC[C@@H](C(=O)O)C2)cc1 (stereo partly drawn) [Example 67] | 675 |
| Cc1noc(-c2ccc(OC3CCCC(c4nnn[nH]4)C3)cc2)c1COC(=O)N(C)C1CCCC1 (mixture of isomers) [Example 75, (5-(4-((3-(1H-tetrazol-5-yl)cyclohexyl)oxy)phenyl)-3-methylisoxazol-4-yl) methyl cyclopentyl(methyl)carbamate] | 851 |
| Cc1noc(-c2ccc(O[C@H]3CCC[C@H](C(=O)O)C3)cc2)c1COC(=O)N(C)CC1CC1 [Example 37] | 206 |
| Cc1noc(-c2ccc(O[C@@H]3CCC[C@@H](CC(=O)O)C3)cc2)c1COC(=O)N(C)CCC(C)C [Example 49] | 1210 |
| Cc1noc(-c2ccc(O[C@@H]3CCC[C@@H](C(=O)O)C3)cc2)c1COC(=O)N(C)CCC1CCCC1 [Example 28] | 470 |
| Cc1noc(-c2ccc(O[C@@H]3CCC[C@@H](C(=O)O)C3)cc2)c1COC(=O)N(C)C(C)C1CCC1 (stereo partly drawn) [Example 69] | 214 |
| COCCN(C)C(=O)OCc1c(C)noc1-c1ccc(O[C@@H]2CCC[C@@H](C(=O)O)C2)cc1 [Example 72] | 472 |
| Cc1noc(-c2ccc(OC3CCCC(c4nnn[nH]4)C3)cc2)c1COC(=O)N(C)C1CCCC1 (single isomer, unassigned) [Example 78, (5-(4-((3-(1H-tetrazol-5-yl)cyclohexyl)oxy)phenyl)-3-methylisoxazol-4-yl)methyl cyclopentyl(methyl)carbamate] | 565 |

Other lines, results leading:

| IC50 [nM] | Compound |
| --- | --- |
| 25 | [2H]C([2H])([2H])N(C(=O)OCc1c(C)noc1-c1ccc(O[C@H]2CCC[C@H](C(=O)O)C2)cn1)[C@H](C)C1CC1 [Example 66] |
| 18 | Cc1noc(-c2ccc(O[C@@H]3CCC[C@@](F)(C(=O)O)C3)cc2)c1COC(=O)N(C)C1CCCC1 (racemic) [Example 3] |
| 23 | Cc1noc(-c2ccc(O[C@H]3CCC[C@H](C(=O)O)C3)cn2)c1COC(=O)N(C)C1CC(C)(C)C1 [Example 70] |
| 27 | Cc1nc(-c2onc(C)c2COC(=O)N(C)C2CCCC2)ccc1O[C@H]1CCC[C@@H](C(=O)O)C1 [Example 39] |
| 14 | Cc1nc(-c2onc(C)c2COC(=O)N(C)C2CCCC2)ccc1O[C@H]1CCC[C@H](C(=O)O)C1 [Example 12] |
| 6 | Cc1onc(-c2ccc(O[C@H]3CCC[C@H](C(=O)O)C3)cc2)c1COC(=O)N(C)C1CCCC1 [Example 53, (1S,3S)-3-(4-(4-(((cyclopentyl(methyl)carbamoyl)oxy)methyl)-5-methylisoxazol-3-yl)phenoxy)cyclohexane-1-carboxylic Acid] |
| 28 | CCCCN(C)C(=O)OCc1c(C)noc1-c1ccc(O[C@H]2CCC[C@H](C(=O)O)C2)cc1 [Example 2, (1S,3S)-3-(4-(4-(((butyl(methyl)carbamoyl)oxy)methyl)-3-methylisoxazol-5-yl)phenoxy) cyclohexane-1-carboxylic Acid] |
| 11 | Cc1nc(-c2onc(C)c2COC(=O)N(C)CCC2CC2)ccc1O[C@H]1CCC[C@H](C(=O)O)C1 [Example 10, (1S,3S)-3-((6-(4-((((2-Cyclopropylethyl)(methyl)carbamoyl)oxy)methyl)-3-methylisoxa-zol-5-yl)-2-methylpyridin-3-yl)oxy)cyclohexanecarboxylic Acid] |
| 23 | Cc1noc(-c2ccc(O[C@H]3CCC[C@H](C(=O)O)C3)cc2)c1COC(=O)N(C)CCC1CC1 [Example 27] |
| 13 | Cc1nc(-c2onc(C)c2COC(=O)N(C)CC2CCC2)ccc1O[C@H]1CCC[C@H](C(=O)O)C1 [Example 11] |
| 31 | Cc1nc(-c2onc(C)c2COC(=O)N(C)Cc2ccccc2)ccc1O[C@H]1CCC[C@H](C(=O)O)C1 [Example 18] |
| 29 | Cc1nc(-c2onc(C)c2COC(=O)N(C)CC2CCCC2)ccc1O[C@H]1CCC[C@H](C(=O)O)C1 [Example 21] |
| 5.2 | Cc1noc(-c2ccc(O[C@H]3CCC[C@H](C(=O)O)C3)cn2)c1COC(=O)N(C)CCC(C)C [Example 45] |
| 197 | Cc1onc(-c2ccc(O[C@H]3CCC[C@H](C(=O)O)C3)nc2)c1COC(=O)N(C)C1CCCC1 [Example 54, (1S,3S)-3-((5-(4-(((cyclopentyl(methyl)carbamoyl)oxy)methyl)-5-methylisoxazol-3-yl)pyridin-2-yl)oxy)cyclohexane-1-carboxylic Acid] |
| 10 | CCCCCN(C)C(=O)OCc1c(C)noc1-c1ccc(O[C@H]2CCC[C@H](C(=O)O)C2)c(C)n1 [Example 19] |
| 15 | Cc1noc(-c2ccc(O[C@H]3CCC[C@H](C(=O)O)C3)cn2)c1COC(=O)N(C)CCC1CC1 [Example 43] |
| 102 | Cc1noc(-c2ccc(O[C@H]3CCC[C@H](C(=O)O)C3)cc2)c1COC(=O)N(C)C1CCC1 [Example 36] |
| 133 | Cc1noc(-c2ccc(OC3CCCC(F)(C(=O)O)C3)cc2)c1COC(=O)N(C)C1CCCC1 (single isomer, unassigned) [Example 5] |
| 20 | Cc1noc(-c2ccc(O[C@H]3CCC[C@H](C(=O)O)C3)cn2)c1COC(=O)N(C)[C@H](C)C1CC1 [Example 42] |
| 26 | Cc1noc(-c2ccc(O[C@@H]3CCC[C@@H](C(=O)O)C3)c(F)c2)c1COC(=O)N(C)C1CCCC1 [Example 38] |
| 93 | Cc1nc(-c2onc(C)c2COC(=O)N(C)C2(c3ccccc3)CC2)ccc1O[C@H]1CCC[C@H](C(=O)O)C1 [Example 16] |
| 82 | Cc1noc(-c2ccc(O[C@H]3CCC[C@H](C(=O)O)C3)cc2)c1COC(=O)N(C)CC1CCC1 [Example 34] |
| 60 | Cc1noc(-c2ccc(O[C@H]3CCC[C@H](C(=O)O)C3)cc2)c1COC(=O)N(C)CCC(C)(C)C [Example 30] |
| 89 | Cc1noc(-c2ccc(O[C@H]3CCC[C@](C)(C(=O)O)C3)cc2)c1COC(=O)N(C)C1CCCC1 (racemic) [Example 8, (±)-Trans-3-(4-(4-(((cyclopentyl(methyl)carbamoyl)oxy)methyl)-3-methylisoxazol-5-yl)phenoxy)-1-methylcyclohexanecarboxylic Acid] |
| 8 | Cc1nc(-c2onc(C)c2COC(=O)N(C)CCC(C)C)ccc1O[C@H]1CCC[C@H](C(=O)O)C1 [Example 20] |
